Among the data in ChEMBL document CHEMBL3882245, “Novel aminopyridine derivatives having aurora a selective inhibitory action” (2008) are inhibition of growth values, retold here.

SMILES strings stand for the structures.

The nature of the assay: Cytotoxicity against human HeLaS3 cells assessed as cell growth inhibition at 0.3 nM after 3 days by WST-8 assay. The assay is classed as functional. The note with it: HeLa S3, 72 h, read-out: GI. A general note: Tetrazolium assays rely on reduction of a dye to a coloured formazan, in cell work by metabolically active cells.

On to `CC(=O)O[C@@]12CO[C@@H]1C[C@H](O)[C@@]1(C)C(=O)[C@H](O)C3=C(C)[C@@H](OC(=O)[C@H](O)[C@@H](NC(=O)OC(C)(C)C)c4ccccc4)C[C@@](O)([C@@H](OC(=O)c4ccccc4)[C@H]21)C3(C)C` [DOCETAXEL ANHYDROUS], for which the inhibition of growth at 0.0003 µM was in the range of 25.6 to 53.4%.
